Assay results taken from patent US20100305068A1, “COMPOUNDS AND METHODS FOR MODULATING PROTEIN TRAFFICKING” (priority 2006, published 2010).
Where two headings read alike, the source gives them in different places.

System: pdr5 ypt1^ts cells
Test: microbe, parasite or virus in culture
Type: cell-based, yeast
Conditions: for minimal effective concentration / optical density, ypt1-ts, 0.39 / optical density, ypt1-ts, 0.78 / optical density, ypt1-ts, 1.56 / optical density, ypt1-ts, 3.13 / optical density, ypt1-ts, 6.25 / optical density, ypt1-ts, 12.5 / optical density, ypt1-ts, 25: Table 2; for minimal effective concentration: lowest concentration tested giving growth above the 0 μM background, read-out: ypt1-ts MRC (minimal rescue concentration); for optical density, ypt1-ts, 0.39: 0.39 μM compound; for optical density, ypt1-ts, 0.39 / optical density, ypt1-ts, 0.78 / optical density, ypt1-ts, 1.56 / optical density, ypt1-ts, 3.13 / optical density, ypt1-ts, 6.25 / optical density, ypt1-ts, 12.5 / optical density, ypt1-ts, 25: background (0 μM) 0.058; for optical density, ypt1-ts, 0.78: 0.78 μM compound; for optical density, ypt1-ts, 1.56: 1.56 μM compound; for optical density, ypt1-ts, 3.13: 3.13 μM compound; for optical density, ypt1-ts, 6.25: 6.25 μM compound; for optical density, ypt1-ts, 12.5: 12.5 μM compound; for optical density, ypt1-ts, 25: 25 μM compound
In short: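 Whole-cell yeast growth-rescue screen: pdr5 ypt1^ts cells (efflux pump inactivated), growth-arrested at 37° C., cultured with compounds at 37° C. Restoration of growth read by optical density.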

[1] = Table 3, 3.13 uM compound, 37° C., background (0 uM) 0.077
[2] = Table 3, 12.5 uM compound, 37° C., background (0 uM) 0.077
[3] = Table 3, 50 uM compound, 37° C., background (0 uM) 0.077
[4] = Saccharomyces cerevisiae, 37° C.

Row | Compound | optical density, 3.13 uM [1] | optical density, 12.5 uM [2] | optical density, 50 uM [3] | minimal effective concentration [4] | optical density, ypt1-ts, 0.39 (37° C.) | optical density, ypt1-ts, 0.78 (37° C.) | optical density, ypt1-ts, 1.56 (37° C.) | optical density, ypt1-ts, 3.13 (37° C.) | optical density, ypt1-ts, 6.25 (37° C.) | optical density, ypt1-ts, 12.5 (37° C.) | optical density, ypt1-ts, 25 (37° C.) | minimal effective concentration (37° C.) | optical density, 3.13 uM | optical density, 12.5 uM | optical density, 50 uM
1 | CC(CCC(=O)O)[C@H]1CCC2C3C(CC[C@@]21C)[C@@]1(C)CC[C@@H](O)C[C@H]1C[C@@H]3O (some centres unmarked) [URSODIOL, reference compound] | 0.202 | 0.41 | 0.523 |  |  |  |  |  |  |  |  |  |  |  | 
2 | O=c1c2ccccc2oc2ccccc12 [XANTHONE] |  |  |  | 6.25 µM | 0.096 | 0.072 | 0.093 | 0.109 | 0.152 | 0.445 | 0.598 |  |  |  | 
3 | Nc1nc2ncc(=O)[nH]c2c(=O)[nH]1 [XANTHOP- TERIN] | 0.101 | 0.23 | 0.073 |  |  |  |  |  |  |  |  |  |  |  | 
4 | C=C1C2CC[C@@]3(C)[C@H](c4ccoc4)OC(=O)C[C@]13O[C@H]1CC(=O)C(C)(C)C(CC(=O)OC)C21C (some centres unmarked) [[…], METHYL ESTER] |  |  |  | 3.13 µM | 0.119 | 0.087 | 0.107 | 0.21 | 0.53 | 0.56 | 0.577 |  |  |  | 
5 | AKLAVINE HYDROCHLORIDE |  |  |  |  | 0.095 | 0.136 | 0.078 | 0.088 | 0.101 | 0.145 | 0.246 | 12.5 µM |  |  | 
6 | AVOCATIN A | 0.351 | 0.06 | 0.036 |  |  |  |  |  |  |  |  |  |  |  | 
7 | AVOCATIN B | 0.451 | 0.032 | 0.032 |  |  |  |  |  |  |  |  |  |  |  | 
8 | CHLORO- PHYLLIDE Cu COMPLEX Na SALT | 0.064 | 0.054 | 0.305 |  |  |  |  |  |  |  |  |  |  |  | 
9 | DACTINOMYCIN [reference compound] |  |  |  |  | 0.093 | 0.071 | 0.082 | 0.104 | 0.351 | 0.663 | 0.669 | 6.25 µM |  |  | 
10 | FUSIDIC ACID [reference compound] |  |  |  |  | 0.095 | 0.081 | 0.084 | 0.107 | 0.137 | 0.296 | 0.52 | 6.25 µM |  |  | 
11 | NIMESULIDE [reference compound] |  |  |  |  |  |  |  |  |  |  |  |  | 0.098 | 0.147 | 0.539
12 | NIMODIPINE [reference compound] |  |  |  |  | 0.097 | 0.081 | 0.096 | 0.113 |  | 0.178 | 0.27 | 12.5 µM |  |  | 
